Assay results reported in the supplement of paper PMC10307832.

Legend:
Experiment in all cases: relative viability (nuclei count vs DMSO), 5 days (fraction); higher = more cells survive
Indole-3-carbinol = compound: OCc1c[nH]c2ccccc12 [Indole-3-carbinol]
How it was run: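 Five library-drug doses spaced by √10 were pinned onto vehicle-anchored 1536-well plates of lung cancer cell lines that had been kept overnight at 37 °C. Cells went 5 days without medium change, then were fixed, permeabilised and Hoechst-stained together, imaged at 4× and counted by MetaXpress. Viability is the ratio of treated-well to vehicle-well nuclei, taken as a median over plates. Plates required control CV below 25% and at least one doubling.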

[1] = compound: OCc1c[nH]c2ccccc12 [Indole-3-carbinol] + CCNC(=O)c1noc(-c2cc(C(C)C)c(O)cc2O)c1-c1ccc(CN2CCOCC2)cc1 [Luminespib] (partner 0.01 µM)
How it was run: (§1)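 Relative viability equals treated-well nuclei counts divided by vehicle-well nuclei counts. Counts came from 4× images of lung cancer cell lines grown in 1536-well plates for 5 days after pin-tool dosing on the day after seeding. Dosing used one drug alone or a fixed anchor-drug dose plus five library-drug doses (not always all listed) in √10 steps, and values are medians of duplicate plates.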

[2] = compound: OCc1c[nH]c2ccccc12 [Indole-3-carbinol] + C[C@@H](Oc1cc(-c2cnn(C3CCNCC3)c2)cnc1N)c1c(Cl)ccc(F)c1Cl [Crizotinib] (partner 1 µM)
How it was run: as §1

[3] = compound: OCc1c[nH]c2ccccc12 [Indole-3-carbinol] + C[C@]1(O)C[C@@H](c2nc(-c3ccc4ccc(-c5ccccc5)nc4c3)c3c(N)nccn32)C1 [Linsitinib] (partner 1 µM)
How it was run: as §1

[4] = compound: OCc1c[nH]c2ccccc12 [Indole-3-carbinol] + O=C(CCCCCCC(=O)Nc1ccccc1)NO [Vorinostat] (partner 1 µM)
How it was run: as §1

Row | Cell Line | relative viability (Indole-3-carbinol; 0.253 µM) | relative viability (Indole-3-carbinol; 0.8 µM) | relative viability (Indole-3-carbinol; 2.53 µM) | relative viability (Indole-3-carbinol; 8 µM) | relative viability ([1]; first compound 0.253 µM) | relative viability ([1]; first compound 0.8 µM) | relative viability ([1]; first compound 2.53 µM) | relative viability ([1]; first compound 8 µM) | relative viability ([2]; first compound 0.253 µM) | relative viability ([2]; first compound 0.8 µM) | relative viability ([2]; first compound 2.53 µM) | relative viability ([2]; first compound 8 µM) | relative viability ([3]; first compound 0.253 µM) | relative viability ([3]; first compound 0.8 µM) | relative viability ([3]; first compound 2.53 µM) | relative viability ([3]; first compound 8 µM) | relative viability ([4]; first compound 0.253 µM) | relative viability ([4]; first compound 0.8 µM) | relative viability ([4]; first compound 2.53 µM) | relative viability ([4]; first compound 8 µM)
1 | NCI-H3122 | 1.07 | 0.986 | 1.02 | 0.983 | 0.0769 | 0.123 | 0.108 | 0.0975 | 0.289 | 0.293 | 0.281 | 0.292 | 1.02 | 1.03 | 1.07 | 1.04 | 1.05 | 1.05 | 1.06 | 0.885
2 | PC-3 [JPC-3] | 1.05 | 1.04 | 1.05 | 0.953 | 0.644 | 0.796 | 0.722 | 0.658 | 0.946 | 1.08 | 0.997 | 0.969 | 0.948 | 0.985 | 0.922 | 0.887 | 0.827 | 0.926 | 0.801 | 0.875
3 | PC-14 | 1.04 | 0.948 | 1 | 0.953 | 0.218 | 0.143 | 0.24 | 0.191 | 0.936 | 1.04 | 0.903 | 0.883 | 0.943 | 0.882 | 0.891 | 0.903 | 0.665 | 0.594 | 0.724 | 0.649
4 | RERF-LC-KJ | 1.01 | 0.999 | 0.947 | 0.92 | 1.25 | 1.18 | 1.23 | 1.11 | 0.862 | 0.917 | 0.84 | 0.793 | 0.961 | 0.943 | 0.868 | 0.825 | 0.687 | 0.622 | 0.656 | 0.726
5 | SK-LU-1 | 1.11 | 0.969 | 1.03 | 0.996 | 0.214 | 0.228 | 0.211 | 0.203 | 1.01 | 1.01 | 0.989 | 0.823 | 1.05 | 1.19 | 1.09 | 1.02 | 0.795 | 0.865 | 0.757 | 0.839
6 | SK-MES-1 | 1.02 | 1.08 | 0.991 | 0.953 | 0.751 | 0.88 | 0.667 | 0.798 | 0.996 | 1.07 | 1.03 | 0.965 | 1.12 | 1.13 | 1.08 | 1.07 | 1.16 | 1.08 | 1.08 | 0.986
7 | SW 1573 | 0.954 | 1.08 | 1.12 | 0.949 | 0.183 | 0.248 | 0.303 | 0.138 | 0.722 | 0.936 | 0.833 | 0.678 | 0.77 | 0.898 | 0.932 | 0.754 | 0.764 | 0.731 | 1.05 | 0.76
8 | UMC-11 | 0.977 | 1.03 | 0.966 | 0.983 | 1.01 | 0.953 | 1.04 | 1.01 | 0.589 | 0.708 | 0.696 | 0.577 | 0.937 | 0.983 | 0.963 | 0.967 | 0.332 | 0.377 | 0.432 | 0.398
